Test [1] has as its target T1, IDH2/R140Q (Homo sapiens, UniProt P48735, R140Q).
T1 sequence (P48735 40-452 R140Q): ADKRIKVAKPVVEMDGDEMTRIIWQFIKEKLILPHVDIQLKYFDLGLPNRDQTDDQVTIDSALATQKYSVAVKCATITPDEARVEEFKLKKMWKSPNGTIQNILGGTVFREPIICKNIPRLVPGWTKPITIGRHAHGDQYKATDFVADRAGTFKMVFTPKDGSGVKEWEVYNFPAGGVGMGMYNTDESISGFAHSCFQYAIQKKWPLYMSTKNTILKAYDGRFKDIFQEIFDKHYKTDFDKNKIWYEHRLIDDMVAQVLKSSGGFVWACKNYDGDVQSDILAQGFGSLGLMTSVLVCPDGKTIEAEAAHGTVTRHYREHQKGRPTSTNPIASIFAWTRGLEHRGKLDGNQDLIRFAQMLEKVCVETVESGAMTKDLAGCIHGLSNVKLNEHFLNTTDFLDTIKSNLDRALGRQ
Nature of the test: Inhibition of mutant IDH2 activity at the cell level (extracellular 2-HG, U87MG overexpressing IDH2/R140Q). It is filed as cell-based. Here is the method:
2-hydroxyglutarate dehydrogenase (2HGDH) can reduce NAD+ to NADH in the presence of 2-HG. The latter can be quantitatively detected by diaphorase and its substrate Resazurin.
The glioma cells U87MG overexpressing IDH2/R140Q mutation were cultured in 1% sodium pyruvate high-sugar MEM, 10% FBS, and placed in a CO2 incubator (37° C., 5% CO2, 95% air) for cultivation.
The cells were digested with trypsin and seeded in a 96-well plate at a density of 1×10^4 with a medium of 200 μL and cultured in a 37° C. incubator overnight. The next day, the test compound was added to a final concentration of 0.1% for DMSO. […] The protein and other components in the medium that may interfere with the results were filtered, and the follow-up method was used to detect the content of 2-HG. 50 uL CellTiter-Glo (purchased from Promega) was added to the 96-well plate with the remaining 100 μL of medium to detect cell survival;
Extracellular 2-HG detecting system:
(1) 50 μL reaction system: reaction buffer (50 mM Tris pH7.5, 100 mM NaCl, 20 mM MgCl2, 0.05% BSA), in which the final concentration of NAD+ was 40 μM, the final concentration of 2HGDH was 20 nM, and the test sample was added to 5 μL of medium; the reaction solution was mixed and centrifuged, and the reaction was carried out for 1 hour at 25° C. in the dark;
Preparation of 2-HG standard curve: a 2-HG stock solution was diluted to 20 μM with reaction buffer, and a 2-fold gradient diluting was performed for a total of 6 points. Afterwards, the above-mentioned 2-HG was measured according to the extracellular 2-HG detecting system, and a standard curve was calculated and drawn.
Calculation of extracellular 2-HG content:
The fluorescence value obtained in the extracellular 2-HG detecting system was calculated using the 2-HG standard curve to calculate the content of 2-HG in the medium, and DMSO was used as a negative control to calculate the compound's inhibition against IDH2/R140Q mutation producing 2-HG activity.

Test [2] addresses T1, IDH2/R140Q. Kind of test: Determination of the inhibitory activity of the compounds on IDH2/R140Q (NADPH reduction, resazurin/lipoamide dehydrogenase detection). Details: purchased Abcam ab198153. The test is classed as biochemical. Here is the method:
In this example, the inhibitory activity of a compound on IDH2/R140Q was determined by measuring the reduction of the cofactor NADPH. The compound was incubated with IDH2/R140Q and NADPH, and then the reaction was initiated by adding α-KG. After a certain time of reaction under linear conditions, lipoamide dehydrogenase and the corresponding substrate resazurin were added for detection. Lipoamide dehydrogenase terminated the IDH2/R140Q reaction bγ subtracting the available cofactor NADPH. It oxidized NADPH to NADP, and reduced resazurin to highly fluorescent resorufin. The production of resorufin was detected to quantify the amount of cofactor NADPH remaining after a specific reaction time.
Then 25 μL of a stop mixed solution (lipoamide dehydrogenase 36 μg/mL, resazurin 30 μM) prepared with the above reaction buffer was added to convert resazurin to resorufin to measure the remaining NADPH. After 10 minutes of incubation at 25° C., the fluorescence value was measured by Tecan […] […] The enzyme activity was measured at 10 concentrations for each compound, and multiple background holes without enzyme and full enzyme activity holes without compound were set up in the reaction. The concentration of dimethyl sulfoxide in the system was less than or equal to 2%. […] The multi-well plate in this example was purchased from Thermo Fisher Scientific, NADPH, α-KG, lipoamide dehydrogenase, and resazurin were purchased from Shenggong Bioengineering Co., Ltd., and IDH2/R140Q was purchased from Abcam (ab198153).
(Resazurin is reduced to fluorescent resorufin, in cell work by metabolically active cells.)

[3] abbreviates: IDH2/R140Q inhibitory activity, cells marked (1 h), read-out: IC50.
Setting [4] is: U87MG overexpressing IDH2/R140Q, 2-HG in medium after 24 hours of culturing with compound, read-out: IC50.
Setting [5] is: IDH2/R140Q inhibitory activity, pre-incubated at 25° C. for 16 hours, read-out: IC50.

In general, IC50 refers to the concentration that inhibits the measured activity by half.

On to `CC(C)(O)CNc1nc(Nc2ccnc(C(F)(F)F)c2)nc(-c2cccc(C(F)(F)F)n2)n1` [AG-221, Enasidenib, reference compound], for which the IC50 in test [1] and in test [2] was less than 0.1 µM in each case.
Consider `CC(C)n1cnc2c(Nc3ccccc3)nc(-c3ccccc3)nc21` [Compound 1, 9-isopropyl-N,2-diphenyl-9H-purin-6-amine], for which the IC50 in test [2] (setting [3]) was greater than 10 µM.
Take `COc1ccccc1Nc1nc(-c2ccccc2)nc2c1ncn2C(C)C` [Compound 2, 9-isopropyl-N-(2-methoxyphenyl)-2-phenyl-9H-purin-6-amine]: the IC50 in test [2] (setting [3]) was greater than 10 µM.
As for `CC(C)n1cnc2c(Nc3ccnc(C(F)(F)F)c3)nc(-c3ccccc3)nc21` [Compound 3, 9-isopropyl-2-phenyl-N-(2-(trifluoromethyl)pyridin-4-yl)-9H-purin-6-amine], the IC50 in test [1] (setting [4]) and in test [2] (setting [3]) was greater than 10 µM in each case.
On to `CC(C)n1cnc2c(Nc3ccnc(C(F)(F)F)c3)nc(-c3cccc(C(F)(F)F)n3)nc21` [Compound 4, 9-isopropyl-2-(6-(trifluoromethyl)pyridin-2-yl)-N-(2-(trifluoromethyl)pyridin-4-yl)-9H-purine-6-amine], for which the IC50 in test [1] (setting [4]) and in test [2] (setting [3]) was greater than 10 µM in each case.
Consider `CC(C)n1cnc2c(Nc3ccnc(C(F)(F)F)c3)nc(-c3cccnc3)nc21` [Compound 5, 9-isopropyl-2-(pyridin-3-yl)-N-(2-(trifluoromethyl)pyridin-4-yl)-9H-purin-6-amine], for which the IC50 in test [1] (setting [4]) and in test [2] (setting [3]) was greater than 10 µM each time.
Consider `c1ccc(Nc2nc(-c3ccccc3)nc3[nH]cnc23)cc1` [Compound 6, N,2-diphenyl-9H-purin-6-amine], for which the IC50 in test [1] (setting [4]) and in test [2] (setting [3]) was greater than 10 µM each time.
In the case of `Cc1cc2c(-c3ccccc3)nc(Nc3ccccc3)nc2[nH]1` [Compound 7, 6-methyl-N,4-diphenyl-7H-pyrrolo[2,3-d]pyrimidin-2-amine], the IC50 in test [1] (setting [4]) and in test [2] (setting [5]) was 1 to 10 µM in each case.
Take `Cc1cc2c(Nc3ccccc3)nc(-c3ccccc3)nc2[nH]1` [Compound 8, 6-methyl-N,2-diphenyl-7H-pyrrolo[2,3-d]pyrimidin-4-amine]: the figures for the IC50 in test [1] (setting [4]) and in test [2] (setting [5]) were 1 to 10 µM and 0.1 to 1 µM, respectively.
On to `CC(C)n1cnc2c(Nc3ccnc(C(F)(F)F)c3)nc(-c3ccncc3)nc21` [Compound 9, 9-isopropyl-2-(pyridin-4-yl)-N-(2-(trifluoromethyl)pyridin-4-yl)-9H-purin-6-amine], for which the IC50 in test [1] (setting [4]) and in test [2] (setting [3]) was greater than 10 µM throughout.
In the case of `CC(C)n1cnc2c(Nc3ccnc(C(F)(F)F)c3)nc(-c3ccccn3)nc21` [Compound 10, 9-isopropyl-2-(pyridin-2-yl)-N-(2-(trifluoromethyl)pyridin-4-yl)-9H-purin-6-amine], the IC50 in test [1] (setting [4]) and in test [2] (setting [3]) was greater than 10 µM throughout.
Turning to `Cn1ccc2c(Nc3ccccc3)nc(-c3ccccc3)nc21` [Compound 11, 7-methyl-N,2-diphenyl-7H-pyrrolo[2,3-d]pyrimidin-4-amine], in test [2] (setting [3]), the IC50 was greater than 10 µM.
Regarding `CC(C)n1cnc2c(-c3ccccc3)nc(Nc3ccccc3)nc21` [Compound 12, 9-isopropyl-N,6-diphenyl-9H-purin-2-amine], the IC50 in test [1] (setting [4]) and in test [2] (setting [3]) was greater than 10 µM throughout.
With `Cc1cc2c(NC(C)C)nc(-c3ccccc3)nc2[nH]1` [Compound 13, N-isopropyl-6-methyl-2-phenyl-7H-pyrrolo[2,3-d]pyrimidin-4-amine], the IC50 in test [1] (setting [4]) and in test [2] (setting [5]) was 0.1 to 1 µM throughout.
Turning to `Cc1nc2c(Nc3ccccc3)nc(-c3ccccc3)nc2[nH]1` [Compound 14, 8-methyl-N,2-diphenyl-9H-purin-6-amine], the IC50 in test [1] (setting [4]) and in test [2] (setting [3]) was greater than 10 µM each time.
`Cc1cc2c(NC3CC3)nc(-c3ccc4ccccc4c3)nc2[nH]1` [Compound 15, N-cyclopropyl-6-methyl-2-(naphthalene-2-yl)-7H-pyrrolo[2,3-d]pyrimidin-4-amine]: the 50% inhibitory concentration (IC50) in test [2] (setting [5]) is greater than 10 µM.
As for `Cc1cc2c(NC(C)C)nc(-c3ccccn3)nc2[nH]1` [Compound 16, N-isopropyl-6-methyl-2-(pyridin-2-yl)-7H-pyrrolo[2,3-d]pyrimidin-4-amine], the IC50 in test [1] (setting [4]) was 1 to 10 µM; in test [2] (setting [5]), greater than 10 µM.
For `Cc1cc2c(NC(C)C)nc(-c3cccnc3)nc2[nH]1` [Compound 17, N-isopropyl-6-methyl-2-(pyridin-3-yl)-7H-pyrrolo[2,3-d]pyrimidin-4-amine] the same measures were greater than 10 µM and greater than 10 µM.
For `Cc1cc2c(NC(C)C)nc(-c3ccncc3)nc2[nH]1` [Compound 18, N-isopropyl-6-methyl-2-(pyridin-4-yl)-7H-pyrrolo[2,3-d]pyrimidin-4-amine], in that order: greater than 10 µM and greater than 10 µM.
For `c1ccc(Nc2nc(-c3ccccc3)nc3[nH]ccc23)cc1` [Compound 19, N,2-diphenyl-7H-pyrrolo[2,3-d]pyrimidin-4-amine] the same measures were greater than 10 µM and greater than 10 µM.
For `Cc1cc2c(Nc3ccnc(C(F)(F)F)c3)nc(-c3ccccc3)nc2[nH]1` [Compound 20, 6-methyl-2-phenyl-N-(2-(trifluoromethyl)pyridin-4-yl)-7H-pyrrolo[2,3-d]pyrimidin-4-amine], the IC50 in test [1] (setting [4]) was in the range of 1 to 10 µM; in test [2] (setting [5]) it was 0.1 to 1 µM.
For `Cc1cc2c(Nc3ccnc(F)c3)nc(-c3ccccc3)nc2[nH]1` [Compound 21, N-(2-fluoropyridin-4-yl)-6-methyl-2-phenyl-7H-pyrrolo[2,3-d]pyrimidin-4-amine], in that order: 1 to 10 µM and greater than 10 µM.
Take `Cc1cc2c(-c3ccccc3)nc(-c3ccccc3)nc2[nH]1` [Compound 26, 6-methyl-2,4-diphenyl-7H-pyrrolo[2,3-d]pyrimidine]: in test [2] (setting [5]), the half-inhibitory concentration (IC50) is greater than 10 µM.
Same read-out and setting: the value for `Cc1cc2c(NC(C)(C)C)nc(-c3ccccc3)nc2[nH]1` [Compound 27, N-(tert-butyl)-6-methyl-2-phenyl-7H-pyrrolo[2,3-d]pyrimidin-4-amine] was greater than 10 µM; that for `Cc1cc2c(NCc3ccccc3)nc(-c3ccccc3)nc2[nH]1` [Compound 30, N-benzyl-6-methyl-2-phenyl-7H-pyrrolo[2,3-d]pyrimidin-4-amine] was greater than 10 µM; that for `CC(C)Nc1nc(-c2ccccc2)nc2[nH]ccc12` [Compound 32, N-isopropyl-2-phenyl-7H-pyrrolo[2,3-d]pyrimidin-4-amine] was greater than 10 µM.
On the same count and under the same terms, under `CC(C)Nc1nc(-c2ccccc2)nc2[nH]c(Br)cc12` [Compound 33, 6-bromo-N-isopropyl-2-phenyl-7H-pyrrolo[2,3-d]pyrimidin-4-amine] stands greater than 10 µM.
Still for that read-out and setting: under `Cc1cc2c(NCC(C)(C)O)nc(-c3ccccc3)nc2[nH]1` [Compound 35, 2-methyl-1-((6-methyl-2-phenyl-7H-pyrrolo[2,3-d]pyrimidin-4-yl)amino)propan-2-ol] stands greater than 10 µM.

Values taken from patent publication US20220204509A1, “PYRIMIDO FIVE-MEMBERED HETEROCYCLIC COMPOUND AND USE THEREOF AS MUTANT IDH2 INHIBITOR” (EPITAS BIOSCIENCES (SHANGHAI) CO., LTD., priority 2019, published 2022).
